Experimental data published in ChEMBL document CHEMBL3603797, “Factors that influence T box riboswitch efficacy and tRNA affinity” (Bioorg Med Chem, 2015).
Calls of active or inactive are those of the source. The calls are words filed in the database; no cut-off is given here.

Legend:
[1] = Inhibition of readthrough probe 5'Cy5-CGCAccuccacuuuucuuucauaaTGCG-Dabcyl3' binding to 5'UUAUGAAAGAAAAGUGGAGGUGC3' RNA (unknown origin) by fluorescence assay
[2] = Binding affinity to Bacillus subtilis glyQS T box riboswitch mRNA assessed as inhibition of tRNAgly-induced glyQS transcription readthrough after 3 hrs by fluorescence assay

CN(CCCc1ccccc1)Cc1cn(CC(O)COC(=O)NCc2ccccc2)nn1 (configuration not stated)
inhibition [1]: inactive | IC50 [2]: 8 µM
